According to ChEMBL document CHEMBL4196115 (ACS Med Chem Lett, 2018):
Substitutions are numbered along the chain they refer to. Activity calls are given as the source filed them. No cut-off for these calls is given here.

Tests used:
[1] = biological target: T1, Muscarinic acetylcholine receptor M4 (Homo sapiens) (UniProt P08173); assay: Positive allosteric modulation of human muscarinic acetylcholine receptor M4 expressed in CHO cells; type: functional, cell-based
T1 sequence (whole entry): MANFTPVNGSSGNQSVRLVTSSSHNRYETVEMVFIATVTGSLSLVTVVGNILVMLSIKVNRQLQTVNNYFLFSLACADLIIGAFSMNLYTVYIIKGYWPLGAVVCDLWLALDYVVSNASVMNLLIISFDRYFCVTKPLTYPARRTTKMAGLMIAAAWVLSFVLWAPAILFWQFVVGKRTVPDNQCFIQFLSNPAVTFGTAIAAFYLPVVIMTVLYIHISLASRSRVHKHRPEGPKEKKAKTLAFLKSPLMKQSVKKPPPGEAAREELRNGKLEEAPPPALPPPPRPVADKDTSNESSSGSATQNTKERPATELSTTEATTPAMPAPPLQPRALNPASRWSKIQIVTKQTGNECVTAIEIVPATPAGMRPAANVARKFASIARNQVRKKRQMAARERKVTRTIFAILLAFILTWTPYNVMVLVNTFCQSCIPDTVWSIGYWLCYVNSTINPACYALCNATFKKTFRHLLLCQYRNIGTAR

[2] = tested on: Mus musculus; assay: Antialzheimer activity in mouse assessed as plasma concentration required for reversal of scopolamine-induced emotional memory deficits by measuring increase in freezing at 3 mg/kg, ip measured after 24 hrs by contextual fear conditioning assay; type: functional, organism-based
[3] = biological target: T2, Muscarinic acetylcholine receptor M5 (Homo sapiens) (UniProt P08912); assay: Positive allosteric modulation of human muscarinic acetylcholine receptor M5 expressed in CHO cells; type: functional, cell-based
T2 sequence (whole entry): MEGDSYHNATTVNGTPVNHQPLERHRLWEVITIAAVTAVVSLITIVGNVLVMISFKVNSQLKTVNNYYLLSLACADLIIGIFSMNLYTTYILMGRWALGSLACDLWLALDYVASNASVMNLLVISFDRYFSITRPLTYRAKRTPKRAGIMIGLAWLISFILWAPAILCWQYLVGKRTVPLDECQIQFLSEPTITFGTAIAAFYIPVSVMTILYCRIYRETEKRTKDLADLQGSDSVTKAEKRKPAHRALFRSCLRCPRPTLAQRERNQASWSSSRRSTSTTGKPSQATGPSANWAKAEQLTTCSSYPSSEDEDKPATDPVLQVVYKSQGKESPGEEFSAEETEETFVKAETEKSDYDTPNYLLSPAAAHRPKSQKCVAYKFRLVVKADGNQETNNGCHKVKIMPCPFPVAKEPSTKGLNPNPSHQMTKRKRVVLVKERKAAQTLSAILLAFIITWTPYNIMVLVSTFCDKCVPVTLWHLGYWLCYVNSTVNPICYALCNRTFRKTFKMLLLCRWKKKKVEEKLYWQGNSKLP

[4] = biological target: T3, Muscarinic acetylcholine receptor (Canis lupus familiaris) (UniProt A0A8C0MJA7); settings: CHO
T3 sequence (whole entry): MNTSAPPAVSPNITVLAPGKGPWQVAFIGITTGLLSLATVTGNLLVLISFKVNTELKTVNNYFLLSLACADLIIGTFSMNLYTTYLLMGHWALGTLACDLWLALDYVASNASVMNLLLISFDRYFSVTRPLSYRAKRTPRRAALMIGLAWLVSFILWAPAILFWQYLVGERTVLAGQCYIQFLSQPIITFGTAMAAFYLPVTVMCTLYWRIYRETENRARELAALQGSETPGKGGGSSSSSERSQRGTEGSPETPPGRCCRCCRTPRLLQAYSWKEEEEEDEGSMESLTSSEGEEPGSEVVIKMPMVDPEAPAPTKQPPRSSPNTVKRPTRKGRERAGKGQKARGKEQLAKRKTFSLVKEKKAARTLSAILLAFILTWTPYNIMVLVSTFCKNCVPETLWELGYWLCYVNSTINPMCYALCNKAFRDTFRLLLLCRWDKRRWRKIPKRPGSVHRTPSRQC
Description: Positive allosteric modulation of dog muscarinic acetylcholine receptor M1 expressed in CHO cells assessed as increase in acetylcholine-induced calcium mobilization pretreated for 4 mins followed by acetylcholine addition and measured after 4 mins by Fluo-4-AM dye based FLIPR assay

[5] = biological target: T4, Muscarinic acetylcholine receptor M2 (Homo sapiens) (UniProt P08172); assay: Positive allosteric modulation of human muscarinic acetylcholine receptor M2 expressed in CHO cells; type: functional, cell-based
T4 sequence (whole entry): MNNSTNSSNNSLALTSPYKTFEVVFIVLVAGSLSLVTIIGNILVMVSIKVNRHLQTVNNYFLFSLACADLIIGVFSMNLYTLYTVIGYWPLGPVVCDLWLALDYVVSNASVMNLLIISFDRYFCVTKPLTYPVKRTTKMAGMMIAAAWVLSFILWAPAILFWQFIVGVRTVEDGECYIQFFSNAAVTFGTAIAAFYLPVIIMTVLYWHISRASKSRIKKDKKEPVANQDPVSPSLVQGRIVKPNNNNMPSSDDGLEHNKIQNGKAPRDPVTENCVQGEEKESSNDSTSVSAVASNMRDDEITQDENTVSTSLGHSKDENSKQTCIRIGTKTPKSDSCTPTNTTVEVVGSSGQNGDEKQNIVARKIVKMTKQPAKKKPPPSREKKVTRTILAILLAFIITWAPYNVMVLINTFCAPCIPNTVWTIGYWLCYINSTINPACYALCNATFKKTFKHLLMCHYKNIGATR

[6] = biological target: T4, Muscarinic acetylcholine receptor M2 (Homo sapiens); assay: Agonist activity at human muscarinic acetylcholine receptor M2 expressed in CHO cells; type: functional, cell-based
[7] = tested on: Mus musculus; assay: Antialzheimer activity in mouse assessed as reversal of scopolamine-induced emotional memory deficits by measuring increase in freezing at 3 mg/kg, ip measured after 24 hrs by contextual fear conditioning assay; type: functional, organism-based
[8] = tested on: Mus musculus; assay: Antialzheimer activity in mouse assessed as unbound brain concentration required for reversal of scopolamine-induced emotional memory deficits by measuring increase in freezing at 3 mg/kg, ip measured after 24 hrs by contextual fear conditioning assay; type: functional, organism-based
[9] = biological target: T5, Muscarinic acetylcholine receptor M1 (Macaca mulatta) (UniProt P56489); settings: CHO
T5 sequence (whole entry): T3 sequence (whole entry) with I155V, R246P, T248A, T265P, E277D, P312Q, R331K, E335D, A343P, N393D
Description: Positive allosteric modulation of rhesus monkey muscarinic acetylcholine receptor M1 expressed in CHO cells assessed as increase in acetylcholine-induced calcium mobilization pretreated for 4 mins followed by acetylcholine addition and measured after 4 mins by Fluo-4-AM dye based FLIPR assay

[10] = biological target: Muscarinic acetylcholine receptor M3 (Homo sapiens) (UniProt P20309); assay: Positive allosteric modulation of human muscarinic acetylcholine receptor M3 expressed in CHO cells; type: functional, cell-based
Muscarinic acetylcholine receptor M3 (Homo sapiens), sequence (P20309 whole entry, looked up): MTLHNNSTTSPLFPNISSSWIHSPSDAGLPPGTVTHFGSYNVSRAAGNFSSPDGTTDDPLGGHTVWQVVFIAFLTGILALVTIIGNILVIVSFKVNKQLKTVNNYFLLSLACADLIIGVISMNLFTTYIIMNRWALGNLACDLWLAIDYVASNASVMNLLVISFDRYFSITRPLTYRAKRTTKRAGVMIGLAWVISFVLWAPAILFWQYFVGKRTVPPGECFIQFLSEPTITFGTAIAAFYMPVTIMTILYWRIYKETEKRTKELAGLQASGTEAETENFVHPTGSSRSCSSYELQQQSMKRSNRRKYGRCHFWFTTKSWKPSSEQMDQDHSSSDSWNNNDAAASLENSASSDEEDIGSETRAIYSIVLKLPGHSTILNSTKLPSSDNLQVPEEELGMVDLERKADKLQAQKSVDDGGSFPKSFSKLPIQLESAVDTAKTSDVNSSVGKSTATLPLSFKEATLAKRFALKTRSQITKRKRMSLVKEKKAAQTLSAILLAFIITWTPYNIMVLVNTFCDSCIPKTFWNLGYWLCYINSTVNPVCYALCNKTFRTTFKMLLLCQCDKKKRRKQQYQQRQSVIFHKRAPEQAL

**Q.** Which Activity [1] does the source give for `Cc1ccc(Cc2cc3c(=O)n([C@H]4CCCC[C@@H]4O)cnc3c3ccccc23)cn1` here?
**A.** inactive

**Q.** What about the Cp [2] of the same compound?
**A.** 2.4 µM

**Q.** What about the Activity [3] of the same compound?
**A.** inactive

**Q.** What about the IP [4] of the same compound?
**A.** 1.4 nM

**Q.** And the Activity [5]?
**A.** inactive

**Q.** And the Activity [6]?
**A.** inactive

**Q.** And the Activity [7]?
**A.** Active

**Q.** What about the Drug uptake(free) [8] of the same compound?
**A.** 24 nM

**Q.** And the IP [9]?
**A.** 3.8 nM

**Q.** What about the Activity [10] of the same compound?
**A.** inactive
